Results: patent US6902931B1 (priority 1998, dated 2005)

Key:
[1] = system: NIH/3T3 murine fibroblasts; test: Clonogenic assay; format: cell-based; settings: post-thaw; H5 and 0.4 M trehalose; from approximately 200±12 plated cells, one week
Method: For each condition, approximately 200 of the cells that had plated in 3 hours were replated in a […] for one week. To obtain 200 fibroblasts, cells were diluted to 2×10^5 cells/ml, and 1 μl of cell solution was introduced into a P60 petri dish (Falcon) containing 12 ml of DMEM with BCS. After one week, cells were fixed by a 0.5% glutaraldehyde wash and stained by Rhodamine B (Sigma) to enhance colony visibility. The number of colonies formed was determined by visual inspection.

[2] = system: NIH/3T3 murine fibroblasts; test: Viability after vacuum drying and rehydration; format: cell-based; settings: H5-porated; for protection of cells subjected to vacuum drying: 0.3 M sugar; for cells that successfully attached at three hours / survival rate: 0.3M sugar; for cells that successfully attached at three hours: vacuum dried 2 hours at ambient temperature, rehydrated; for survival rate: vacuum dried, adjusted for cell loss using control samples
Method: The efficacy of intracellular trehalose for vacuum dried fibroblasts was also tested. NIH/3T3 murine fibroblasts, prepared as in Example 1, were resuspended in phosphate buffered saline (PBS) solution and the cell density was counted. Cell density was then adjusted to 100,000 cells/ml by diluting with PBS and the sample was divided into three equal aliquots of 4.0 ml each. To each aliquot, 1.0 ml of 25 μg/ml H5 was added, reducing cell density to 8×10^4. The aliquots were incubated at room temperature for 15 minutes with occasional mixing.
In the first two aliquots, enough 1.0M stock solution of either trehalose or sucrose in PBS was added to obtain a final sugar concentration of 0.3M. In the third aliquot, an equivalent amount of PBS, without sugar, was added.
The three aliquots were dispersed in triplicate wells at 20 μl/well into four duplicate 12-well plates. Two of the twelve well plates were incubated at 37° C. and 10% CO2 as controls. The remaining two plates were vacuum dried for 2 hours at ambient temperature. After drying, the dried samples were rehydrated and the poration reversed with serum containing DMEM.
Viability assays were performed by counting attached cells at 3 hours, and cells that remained attached and divided during the next 24 hours. The experiments were repeated three times. […] Adjusting for cell loss due to handling, poration, etc. using the control samples, survival rates of 4% for the cells dried in trehalose and 3% for the cells dried in sucrose were obtained.

[3] = system: 3T3 fibroblasts; test: Volumetric response of porated cells in hypertonic sugar solution (sugar uptake); format: cell-based, murine
Method: Sugar may be added to the cell suspension in an HBS solution to the final desired concentration. Porated cells may be incubated in the sugar containing solution for 45 minutes. […] Of course the length of time required for sugar uptake may vary with the type of cell and the level of cell poration. Sugar uptake may be measured by both the uptake of radiolableled sugar into porated cells as well as by the volumetric response of porated cells placed in a hypertonic sugar solution, yielding statistically correlative results.
Following poration, 0-1.0 M trehalose (final concentration) in HBS solution (Sigma) was added to the cell suspension, as indicated in FIG. 4. To allow for trehalose uptake, porated cells were incubated in the solution for 45 min. […] [Russo et al., “Reversible permeabilization of plasma membranes with an engineered switchable pore,” Nature Biotech. 15, 278-282 (1997).] This uptake was measured by both the uptake of radiolableled sugar into porated cells as well as by the volumetric response of porated cells placed in a hypertonic sugar solution, yielding statistically correlative results. By repeating the volumetric experiments using hypertonic trehalose solutions and 25 μg/ml of porating agent, volumetric equilibration over 90% over a 45 min interval was achieved, indicating the equilibration of intracellular trehalose concentration with that of the suspending solution.

[4] = system: NIH/3T3 murine fibroblasts; settings: mouse, pH 7.4
[5] = system: NIH/3T3 murine fibroblasts
[6] = in vitro; settings: mouse, pH 7.4

| SMILES | colonies formed [1] | protection of cells subjected to vacuum drying [2] | cells that successfully attached at three hours [2] | survival rate [2] | trehalose concentration at which fibroblasts reach minimum volume ([3]; data not shown) | volumetric equilibration ([3]; hypertonic trehalose solutions, 25 μg/ml porating agent, 45 min interval) | viability and function after 1 hour [4] | additional loss of porated cells (18 hours growth) [5] | fibroblasts withstanding osmotic shock (18 hours growth) [5] | higher than all control data to which trehalose was not added [5] | loss of population between 1 hour and 3h / 18 hours [5] | loss of viability or function [5] | population loss [5] | viability [6] |
| --- | --- | --- | --- | --- | --- | --- | --- | --- | --- | --- | --- | --- | --- | --- |
| OC[C@H]1O[C@H](O[C@H]2O[C@H](CO)[C@@H](O)[C@H](O)[C@H]2O)[C@H](O)[C@@H](O)[C@@H]1O [Trehalose, trehalose] | 211.6±5.2 colonies | effective in protecting cells subjected to vacuum drying | 48±3 cells | 4% | about 0.4 M | over 90% | 70-80% | 10% | over 95% | 70-80% | over 60% | did not demonstrate a significant loss of viability | loss of half of their populations | 10% |
| OC[C@H]1O[C@@](CO)(O[C@H]2O[C@H](CO)[C@@H](O)[C@H](O)[C@H]2O)[C@@H](O)[C@@H]1O [sucrose] | – | effective in protecting cells subjected to vacuum drying | 36±3 cells | 3% | – | – | – | – | – | – | – | – | – | – |
